Columns and labels:
[1] = molecular target: purified N-terminal truncated human LSD1 enzyme (aa 151-852) (Homo sapiens (Human), UniProt O60341); assay: LSD1 fluorescence coupling enzymatic assay (horseradish peroxidase/Amplex Red); type: biochemical; conditions: 50 nM LSD1, 30 min pre-incubation, 10 μM histone 3.3 peptide (aa 1-21), 10-point dose-response; read-out: IC50 (nM), Inhibition of LSD1 Activity
MV4-11 cells = assay: Inhibition of LSD1-mediated cellular proliferation, CellTiter Glo luminescence assay; type: cell-based, human; conditions: Day 7, cell viability by CellTiter Glo

| IC50 [1] [nM] | EC50 (MV4-11 cells) [nM] | EC50 (MV4-11 cells; Homo sapiens, 168 h) [nM] | SMILES |
| --- | --- | --- | --- |
| 15 |  |  | CONC(=O)/C=C/c1ccc(CN2CCC(N[C@@H]3C[C@H]3c3ccccc3)CC2)cc1 (relative stereo) [Example 1, (E)-N-Methoxy-3-(4-((4-(((trans)-2-phenylcyclopropyl)amino)piperidin-1-yl)methyl)phenyl)acrylamide] |
| 30 |  |  | CS(=O)(=O)NC(=O)/C=C/c1ccc(CN2CCC(N[C@@H]3C[C@H]3c3ccccc3)CC2)cc1 (relative stereo) [Example 2, (E)-N-(Methylsulfonyl)-3-(4-((4-(((trans)-2-phenylcyclopropyl)amino)piperidin-1-yl)methyl)phenyl)acrylamide] |
| 23 | 32 |  | C(=C\c1ccc(CN2CCC(N[C@@H]3C[C@H]3c3ccccc3)CC2)cc1)/c1ccccc1 (relative stereo) [Example 12] |
| 17 |  | 37 | C(=C\c1cccc(CN2CCC(N[C@@H]3C[C@H]3c3ccccc3)CC2)c1)/c1ccccc1 (relative stereo) [Example 13, N-(trans-2-phenylcyclopropyl)-1-(3-((E)-styryl)benzyl)piperidin-4-amine] |
| 118 | 174 |  | C(=C\c1nnn[nH]1)/c1cccc(CN2CCC(N[C@@H]3C[C@H]3c3ccccc3)CC2)c1 (relative stereo) [Example 14] |
| 10 |  |  | CS(=O)(=O)NC(=O)/C=C/c1ccc(CN2CCC(N[C@@H]3C[C@H]3c3ccccc3)CC2)cc1 [Example 15, (E)-N-(Methylsulfonyl)-3-(4-((4-(((1R,2S)-2-phenylcyclopropyl)amino)piperidin-1-yl)methyl)phenyl)acrylamide] |
| 3 |  | 60 | CS(=O)(=O)NC(=O)c1ccc(CN2CCC(N[C@@H]3C[C@H]3c3ccccc3)CC2)cc1 [Example 34, N-(Methylsulfonyl)-4-((4-(((1R,2S)-2-phenylcyclopropyl)amino)piperidin-1-yl)methyl)benzamide] |
| 25 |  | 30 | CS(=O)(=O)NC(=O)Cc1ccc(CN2CCC(N[C@@H]3C[C@H]3c3ccccc3)CC2)cc1 [Example 35, N-(Methylsulfonyl)-2-(4-((4-(((1R,2S)-2-phenylcyclopropyl)amino)piperidin-1-yl)methyl)phenyl)acetamide] |
| 33 |  | 9 | O=C(/C=C/c1ccc(CN2CCC(CN[C@@H]3C[C@H]3c3ccccc3)CC2)cc1)NS(=O)(=O)c1ccccc1 [Example 48, (E)-3-(4-((4-((((1R,2S)-2-Phenylcyclopropyl)amino)methyl)piperidin-1-yl)methyl)phenyl)-N-(phenylsulfonyl)acrylamide] |
|  |  | 26 | CS(=O)(=O)NC(=O)/C=C/c1ccc(CN2CCC(CN[C@@H]3C[C@H]3c3ccccc3)CC2)cc1 [Example 49, (E)-N-(methylsulfonyl)-3-(4-((4-((((1R,2S)-2-phenylcyclopropyl)amino)methyl)piperidin-1-yl)methyl)phenyl)acrylamide] |
| 27 |  | 19 | CS(=O)(=O)NC(=O)c1ccc(CN2CCC(CN[C@@H]3C[C@H]3c3ccccc3)CC2)cc1 [Example 53, N-(Methylsulfonyl)-4-((4-((((1R,2S)-2-phenylcyclopropyl)amino)methyl)piperidin-1-yl)methyl)benzamide] |

| SMILES | IC50 [1] [nM] | EC50 (MV4-11 cells) [nM] | EC50 (MV4-11 cells; Homo sapiens, 168 h) [nM] |
| --- | --- | --- | --- |
| CS(=O)(=O)NC(=O)Cc1ccc(CN2CCC(CN[C@@H]3C[C@H]3c3ccccc3)CC2)cc1 [Example 57] | 44 |  | 1 |
